Here are results for 20 molecules from PubChem BioAssay AID651653 (NMMLSC, 2012).

The structures appear in SMILES notation. Calls of active or inactive are those of the source.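 How the source made its calls: active means viability at the top tested dose under 50% of the solvent-only control; inactive means the rest.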

The test system of assay [1] is K562-ABCB6 viability, CellTiter-Glo luminescence, 18 h. Put plainly: cytotoxicity in ABCB6-expressing K562 cells, dose response, cytotoxicity control for ABCB6 inhibitor project, cell-based, CellTiter-Glo luminescence, cherry picks 01-02 (AID 651653). For orientation: In ATP-based viability assays light output follows the ATP content of the culture.
Experiment in assay [2]: as above
The following applies: K562-ABCB6 viability, CellTiter-Glo luminescence, 18 h; at 100 µM (top of the series).

A word on the EC50: it is the midpoint of the concentration-response curve. As to `CC(=O)Nc1ccc(NC(=O)c2nc(S(=O)(=O)Cc3ccccc3)ncc2Cl)cc1`, the EC50 in assay [1] was 1.19 µM.
Still for that read-out and setting: then `CCN(CC)S(=O)(=O)c1cccc(-n2c(O)c(C=Nc3ccccc3C(=O)O)c3ccccc3c2=O)c1`, with 13.1 µM; and `COC(=O)c1ccc(NC(=O)c2nc(S(=O)(=O)Cc3cccc(C)c3)ncc2Cl)cc1`, with 0.688 µM; and `C[N+](C)(C)CC1CCCC(C[N+](C)(C)C)C1=O` (stereo not given), with 0.245 µM.
As for `Cc1ccc(CS(=O)(=O)c2ncc(Cl)c(C(=O)Nc3nnc(C(C)C)s3)n2)cc1`, the EC50 in assay [1] was 3.93 µM.
Regarding `CCc1ccc(NC(=O)c2nc(S(=O)(=O)Cc3ccccc3)ncc2Cl)cc1`, the EC50 in assay [1] was 1.62 µM.
On to `Cc1cccc(C)c1NC(=O)c1nc(S(=O)(=O)Cc2ccccc2)ncc1Cl`, for which the EC50 in assay [1] is 2.11 µM.
`Cc1nnc(NC(=O)c2nc(S(=O)(=O)Cc3ccccc3)ncc2Cl)s1`: in assay [1], the EC50 is 0.811 µM.
As to `Cc1cccc(CS(=O)(=O)c2ncc(Cl)c(C(=O)Nc3ccc(F)cc3)n2)c1`, in assay [1], the EC50 is 1.52 µM.
For the molecule `O=C(Nc1ccc(F)cc1)c1nc(S(=O)(=O)Cc2ccccc2)ncc1Cl`, in assay [1], the EC50 is 1.54 µM.
For the molecule `Cc1ccccc1CS(=O)(=O)c1ncc(Cl)c(C(=O)Nc2ccc(F)cc2)n1`, the EC50 in assay [1] was 7.15 µM.
On the same count and under the same terms, under `Cc1cccc(CS(=O)(=O)c2ncc(Cl)c(C(=O)Nc3nnc(C(C)C)s3)n2)c1` stands 6.52 µM; under `CCOc1ccccc1NC(=O)c1nc(S(=O)(=O)Cc2ccccc2)ncc1Cl`, 11.8 µM; under `CCOc1ccccc1NC(=O)c1nc(S(=O)(=O)Cc2cccc(C)c2)ncc1Cl`, 1.43 µM.
Usually viability stands for a per cent measure of how many cells are alive, often set against a control. With `CCCc1nnc(NC(=O)c2nc(S(=O)(=O)Cc3cccc(C)c3)ncc2Cl)s1`, the viability in assay [2] is 65.4% (inactive).
For `Cc1ccc(NC(=O)c2nc(S(=O)(=O)Cc3ccccc3)ncc2Cl)cc1`, the EC50 in assay [1] is 1.8 µM.
Consider `Cc1ccc(CS(=O)(=O)c2ncc(Cl)c(C(=O)Nc3ccc(OC(F)F)cc3)n2)cc1`, for which the EC50 in assay [1] was 3.54 µM.
Still for that read-out and setting: under `CCOC(=O)c1ccc(NC(=O)c2nc(S(=O)(=O)Cc3ccccc3)ncc2Cl)cc1` stands 1.79 µM.
With `Cc1ccc(NC(=O)c2nc(S(=O)(=O)Cc3ccccc3C)ncc2Cl)cc1C`, the EC50 in assay [1] was 1.45 µM.
Regarding `CC(=O)Nc1ccc(NC(=O)c2nc(S(=O)(=O)Cc3cccc(C)c3)ncc2Cl)cc1`, the EC50 in assay [1] was 1.92 µM.
